Laboratory results taken from patent publication US10844051B2, “Substituted oxazoles for the treatment of cancer” (THE ROYAL INSTITUTION FOR THE ADCANCEMENT OF …, priority 2015, dated 2020).

Assays:
Type in all cases: cell-based
human GATA3 = biological target: T1, human GATA3 (Homo sapiens, UniProt P23771); experiment: GATA3-dependent reporter assay in IHH cells; conditions: 48 hours
T1 construct: expressed in transfected cells; host or cells: IHH
Experimental: The IHH cells were transiently transfected with empty vector (for the NT) or human GATA3-expressing plasmid as well as pRL-TK (internal control) and GATA-Luc reporter plasmids. Cells were exposed to DMSO vehicle or compounds for 48 hours. Experiments were done in triplicate.

human GATA2 = biological target: T2, human GATA2 (Homo sapiens, UniProt P23769); experiment: GATA2-dependent reporter assay in IHH cells; conditions: GATA-Luc reporter, 48 h
T2 construct: expressed in transfected cells; host or cells: IHH
T2 sequence (P23769 1-480): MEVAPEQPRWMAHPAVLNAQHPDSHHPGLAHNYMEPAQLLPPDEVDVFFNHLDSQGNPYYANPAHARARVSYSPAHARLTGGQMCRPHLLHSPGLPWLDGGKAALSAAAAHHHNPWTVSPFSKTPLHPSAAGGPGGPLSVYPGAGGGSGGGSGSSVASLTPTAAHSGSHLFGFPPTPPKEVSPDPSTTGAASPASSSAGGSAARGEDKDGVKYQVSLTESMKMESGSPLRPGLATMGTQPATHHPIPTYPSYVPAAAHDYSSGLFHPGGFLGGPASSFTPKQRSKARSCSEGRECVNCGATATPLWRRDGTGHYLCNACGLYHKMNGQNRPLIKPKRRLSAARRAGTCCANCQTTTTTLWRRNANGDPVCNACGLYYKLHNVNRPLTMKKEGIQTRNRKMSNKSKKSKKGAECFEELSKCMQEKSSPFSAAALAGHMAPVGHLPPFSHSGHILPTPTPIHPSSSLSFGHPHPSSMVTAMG
Experimental: K7174 is a known GATA2 inhibitor. The IHH cells were transiently transfected with empty vector (for the NT) or human GATA2-expressing plasmid as well as pRL-TK (internal control) and GATA-Luc reporter plasmids. Cells were exposed to DMSO vehicle or compounds for 48 h. Experiments were in triplicate.

ERG = biological target: T3, ERG (Homo sapiens, UniProt P11308); experiment: ERG-dependent reporter assay in HEK293 cells; parameters: expressed in transfected cells; host or cells: HEK293; conditions: PUx3-Luc reporter, 48 hours, designated doses
T3 sequence (P11308 1-486 isoform P11308-3): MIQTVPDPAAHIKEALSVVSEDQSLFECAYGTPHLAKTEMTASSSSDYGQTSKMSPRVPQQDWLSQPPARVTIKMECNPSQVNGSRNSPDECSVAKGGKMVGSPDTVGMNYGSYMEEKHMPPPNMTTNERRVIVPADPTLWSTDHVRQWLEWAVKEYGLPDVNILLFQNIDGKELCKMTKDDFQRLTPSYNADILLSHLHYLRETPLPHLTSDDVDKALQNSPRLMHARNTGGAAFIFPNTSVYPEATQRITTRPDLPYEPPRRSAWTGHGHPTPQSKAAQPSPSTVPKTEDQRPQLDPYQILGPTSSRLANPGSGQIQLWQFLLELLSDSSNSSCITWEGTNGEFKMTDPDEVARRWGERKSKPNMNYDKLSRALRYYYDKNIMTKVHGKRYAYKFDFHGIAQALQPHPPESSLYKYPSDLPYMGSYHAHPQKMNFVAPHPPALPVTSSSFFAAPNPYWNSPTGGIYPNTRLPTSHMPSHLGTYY
Experimental: (§1) HEK293 cells were transiently transfected with empty vector (for the NT) or ERG-expressing plasmid as well as pRL-TK (internal control) and PUx3-Luc reporter. Cells were then exposed to DMSO vehicle or compounds at designated doses for 48 hours. Experiments were done in triplicate.

human STING (hSTING) = biological target: T4, human STING (hSTING) (Homo sapiens, UniProt Q86WV6); experiment: hSTING ISRE-luc reporter assay in 293T cells; conditions: 24 hours
T4 construct: expressed in transfected cells; host or cells: 293T
T4 sequence (Q86WV6 whole entry H232R): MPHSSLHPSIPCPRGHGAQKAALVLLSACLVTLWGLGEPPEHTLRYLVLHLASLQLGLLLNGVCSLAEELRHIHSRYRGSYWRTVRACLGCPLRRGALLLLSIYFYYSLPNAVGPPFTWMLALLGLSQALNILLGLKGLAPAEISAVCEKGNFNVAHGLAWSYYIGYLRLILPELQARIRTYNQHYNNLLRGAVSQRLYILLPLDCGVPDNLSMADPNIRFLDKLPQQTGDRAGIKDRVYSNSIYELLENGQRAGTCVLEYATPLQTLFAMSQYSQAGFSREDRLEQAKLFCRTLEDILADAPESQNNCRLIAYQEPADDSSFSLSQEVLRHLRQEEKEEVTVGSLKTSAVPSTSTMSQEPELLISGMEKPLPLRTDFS
Experimental: ISRE-luc (reporter), pRL-TK (internal control) and hSTING-expressing plasmids were transiently transfected into 293T cells. Cells were exposed to DMSO vehicle control or compounds for 24 hours. Experiments were done in triplicate.

ETV1 = biological target: T5, ETV1 (Homo sapiens, UniProt P50549); experiment: ETV1-dependent reporter assay in HEK293 cells; conditions: 48 hours
T5 construct: expressed in transfected cells; host or cells: HEK293
T5 sequence (P50549 1-477): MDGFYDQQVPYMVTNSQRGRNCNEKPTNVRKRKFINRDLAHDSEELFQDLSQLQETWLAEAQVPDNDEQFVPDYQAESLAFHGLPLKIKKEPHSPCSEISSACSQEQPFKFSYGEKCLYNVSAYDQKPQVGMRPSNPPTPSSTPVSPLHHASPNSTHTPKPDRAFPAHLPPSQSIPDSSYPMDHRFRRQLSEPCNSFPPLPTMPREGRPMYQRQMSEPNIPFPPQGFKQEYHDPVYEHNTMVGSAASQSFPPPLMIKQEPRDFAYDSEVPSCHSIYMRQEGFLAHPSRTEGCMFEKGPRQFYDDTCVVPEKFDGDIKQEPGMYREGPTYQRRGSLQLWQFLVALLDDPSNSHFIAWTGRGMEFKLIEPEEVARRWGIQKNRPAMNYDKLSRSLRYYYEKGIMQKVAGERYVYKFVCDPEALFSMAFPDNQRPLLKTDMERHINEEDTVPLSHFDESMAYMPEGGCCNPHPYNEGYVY
Experimental: as §1
Experiments were done as described above in FIG. 1.1a) except that ERG plasmid was replaced by ETV1 plasmid.

hSTING and/or mSTING = experiment: hSTING- or mSTING-dependent ISRE-luc reporter assay in 293T cells; conditions: 24 hours
Experimental: ISRE-luc (reporter), pRL-TK (internal control) and hSTING- or mSTING-expressing plasmids were transiently transfected into 293T cells. Cells were exposed to DMSO vehicle control or compounds for 24 hours. Experiments were done in triplicate.

T1 sequence (P23771 whole entry): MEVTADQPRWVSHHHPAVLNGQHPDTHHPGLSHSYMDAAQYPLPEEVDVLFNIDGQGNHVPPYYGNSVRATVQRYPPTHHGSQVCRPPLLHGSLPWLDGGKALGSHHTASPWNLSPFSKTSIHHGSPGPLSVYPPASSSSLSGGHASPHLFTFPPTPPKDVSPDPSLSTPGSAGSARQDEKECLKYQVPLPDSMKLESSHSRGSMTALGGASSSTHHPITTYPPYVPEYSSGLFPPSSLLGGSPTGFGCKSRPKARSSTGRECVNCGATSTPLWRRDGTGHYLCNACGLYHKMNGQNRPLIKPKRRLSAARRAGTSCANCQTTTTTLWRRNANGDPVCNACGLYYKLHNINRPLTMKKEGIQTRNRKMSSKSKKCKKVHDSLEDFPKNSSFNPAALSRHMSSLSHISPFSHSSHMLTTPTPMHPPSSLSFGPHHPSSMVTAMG

FC(F)(F)c1cccc(Cc2nc(-c3ccccc3)c(-c3ccccc3)o2)c1 [Compound 687] was tested, and the “activity against GATA3 in GATA3-dependent reporter assay” value (“activity against GATA3” for short) (human GATA3; 10 μM) was “inactive against GATA3” and the “GATA2 inhibition in GATA2-dependent reporter assay” value (“GATA2 inhibition” below) (human GATA2) was “GATA2 inhibitors”.

With C(=N\c1oc(-c2ccccc2)nc1Sc1ccccc1)/c1ccccc1 [Compound V151] the “ERG inhibition in ERG-dependent reporter assay” value (from here on “ERG inhibition”) (ERG) was “ERG inhibitors”.

For Oc1cccc(-c2nc(CCCc3c[nH]c4ccccc34)oc2-c2cccc(O)c2)c1 [Compound 676], the “activity against GATA3” value (human GATA3; 10 μM) was “inactive against GATA3”, the “activity against GATA3” value (human GATA3; compounds at 5 μM) was “inactive against GATA3” and the “activation of hSTING in ISRE-luc reporter assay” value (human STING (hSTING)) was “activate human STING (hSTING)”. The “GATA2 inhibition” value (human GATA2) was “GATA2 inhibitors”.

In the case of Fc1cccc(-c2nc(Cc3c[nH]c4ccccc34)oc2-c2cccc(F)c2)c1 [Compound 650], the “activity against GATA3” value (human GATA3; 10 μM) is reported as “active against GATA3”, the “activation of hSTING in ISRE-luc reporter assay” value (human STING (hSTING)) is reported as “activate hSTING” and the “GATA2 inhibition” value (human GATA2) is reported as “GATA2 inhibitors”. For the same compound, the “ETV1 inhibition in ETV1-dependent reporter assay” value (“ETV1 inhibition” for short) (ETV1) was “ETV1 inhibitors”.

In the case of Cc1cccc(-c2nc(Cc3c[nH]c4ccccc34)oc2-c2cccc(C)c2)c1 [Compound 651], the “ERG inhibition” value (ERG) is reported as “ERG inhibitors” and the “ETV1 inhibition” value (ETV1) is reported as “ETV1 inhibitors”.

With COc1cccc(-c2oc(CCCc3c[nH]c4ccccc34)nc2-c2ccc[nH]2)c1 [Compound 830] the “activation of hSTING in ISRE-luc reporter assay” value (human STING (hSTING)) was “activate hSTING”, the “GATA2 inhibition” value (human GATA2) was “GATA2 inhibitors” and the “ETV1 inhibition” value (ETV1) was “ETV1 inhibitors”.

With COc1ccc(-c2oc(Cc3c[nH]c4ccccc34)nc2-c2ccc(O)cc2)cc1 [Compound 699] the “ERG inhibition” value (ERG) was “ERG inhibitors”.

For Fc1ccccc1-c1nc(CCCc2c[nH]c3ccccc23)oc1-c1ccccc1F [Compound 678], the “activation of hSTING in ISRE-luc reporter assay” value (human STING (hSTING)) was “activate hSTING” and the “ERG inhibition” value (ERG) was “ERG inhibitors”.

FC(F)(F)c1cccc(-c2nc(Cc3c[nH]c4ccccc34)oc2-c2cccc(C(F)(F)F)c2)c1 [Compound 656] was tested, and the “activation of hSTING in ISRE-luc reporter assay” value (human STING (hSTING)) was “activate hSTING” and the “ETV1 inhibition” value (ETV1) was “ETV1 inhibitors”.

For COc1cccc(-c2nc(CCc3c[nH]c4ccccc34)oc2-c2cccc(OC)c2)c1 [Compound 641], the “activation of hSTING in ISRE-luc reporter assay” value (human STING (hSTING)) was “activate hSTING” and the “ETV1 inhibition” value (ETV1) was “ETV1 inhibitors”.

Fc1cccc(-c2oc(Cc3c[nH]c4ccccc34)nc2-c2ccco2)c1 [Compound 838] was tested, and the “activation of hSTING in ISRE-luc reporter assay” value (human STING (hSTING)) was “activate hSTING”, the “GATA2 inhibition” value (human GATA2) was “GATA2 inhibitors” and the “ETV1 inhibition” value (ETV1) was “ETV1 inhibitors”.

For COc1ccc(-c2nc(Cc3c[nH]c4ccccc34)oc2-c2ccc(O)cc2)cc1 [Compound 697], the “ERG inhibition” value (ERG) was “ERG inhibitors” and the “ETV1 inhibition” value (ETV1) was “ETV1 inhibitors”.

Clc1ccc(-c2nc(Cc3c[nH]c4ccccc34)oc2-c2ccc(Cl)cc2)cc1 [Compound 661] was tested, and the “ERG inhibition” value (ERG) was “ERG inhibitors” and the “ETV1 inhibition” value (ETV1) was “ETV1 inhibitors”.

For FC(F)(F)c1ccccc1-c1nc(Cc2c[nH]c3ccccc23)oc1-c1ccccc1C(F)(F)F [Compound 659], the “ERG inhibition” value (ERG) was “ERG inhibitors”.

COc1ccc2[nH]c(C)c(Cc3nc(-c4ccccc4)c(-c4ccccc4)o3)c2c1 [Compound 639] was tested, and the “ERG inhibition” value (ERG) was “ERG inhibitors”.

FC(F)(F)c1ccc(-c2nc(Cc3c[nH]c4ccccc34)oc2-c2ccc(C(F)(F)F)cc2)cc1 [Compound 653] was tested, and the “activation of hSTING in ISRE-luc reporter assay” value (human STING (hSTING)) was “activate hSTING” and the “ETV1 inhibition” value (ETV1) was “ETV1 inhibitors”.

In the case of FC(F)(F)c1cccc(/C=C/c2nc(-c3ccccc3)c(-c3ccccc3)o2)c1 [Compound 693], the “activity against GATA3” value (human GATA3; 10 μM) is reported as “inactive against GATA3”, the “activation of hSTING in ISRE-luc reporter assay” value (human STING (hSTING)) is reported as “activate hSTING” and the “GATA2 inhibition” value (human GATA2) is reported as “GATA2 inhibitors”.

Cc1[nH]c2ccccc2c1Cc1nc(-c2ccccc2)c(-c2ccccc2)o1 [Compound 637] was tested, and the “ETV1 inhibition” value (ETV1) was “ETV1 inhibitors”.

For C(=C\c1nc(-c2ccccc2)c(-c2ccccc2)o1)/c1ccoc1 [Compound 686], the “activity against GATA3” value (human GATA3; 10 μM) was “active against GATA3” and the “GATA2 inhibition” value (human GATA2) was “GATA2 inhibitors”.

With O=C1Nc2ccccc2C1Cc1nc(-c2ccccc2)c(-c2ccccc2)o1 (stereo not drawn) [Compound 700] the “ETV1 inhibition” value (ETV1) was “ETV1 inhibitors”.

Clc1ccccc1-c1nc(Cc2c[nH]c3ccccc23)oc1-c1ccccc1Cl [Compound 662] was tested, and the “ERG inhibition” value (ERG) was “ERG inhibitors” and the “ETV1 inhibition” value (ETV1) was “ETV1 inhibitors”.

O=C1Nc2ccccc2C1CCCc1nc(-c2cccc(F)c2)c(-c2cccc(F)c2)o1 (stereo not drawn) [Compound 770] was tested, and the “activity against GATA3” value (human GATA3; compounds at 5 μM) was “inactive against GATA3”, the “activation of hSTING in ISRE-luc reporter assay” value (human STING (hSTING)) was “activate human STING (hSTING)” and the “GATA2 inhibition” value (human GATA2) was “GATA2 inhibitors”.

C(=C\c1c[nH]c2ccccc12)/c1nc(-c2ccccc2)c(-c2ccccc2)o1 [Compound 657] was tested, and the “ETV1 inhibition” value (ETV1) was “ETV1 inhibitors”.

c1ccc(-c2nc(CNCCc3c[nH]c4ccccc34)oc2-c2ccccc2)cc1 [Compound 795] was tested, and the “activity against GATA3” value (human GATA3; 10 μM) was “inactive against GATA3”, the “GATA2 inhibition” value (human GATA2) was “GATA2 inhibitors” and the “activation of hSTING and/or mSTING in ISRE-luc reporter assay” value (hSTING and/or mSTING) was “activate hSTING and/or mSTING”.

With Cn1cc(Cc2nc(-c3ccccc3)c(-c3ccccc3)o2)c2ccccc21 [Compound 638] the “ETV1 inhibition” value (ETV1) was “ETV1 inhibitors”.
